Patent US7531646B2, “β-D-ribosidase activity indicators with a chromogenic substrate” (priority 2001, dated 2009)
Where a name gives a salt, the structure may show the parent alone.

What was measured:
Type in all cases: cell-based
E. coli = experiment: Substrate hydrolysis on Columbia agar; details: 300 mg/l, 18 hours
Shigella dysenteriae = experiment: Substrate hydrolysis on Columbia agar; details: 300 mg/l, 18 hours
Hafnia alvei = experiment: Substrate hydrolysis on Columbia agar; details: 300 mg/l, 18 hours
Serratia marcescens = experiment: Substrate hydrolysis on Columbia agar; details: Serratia marcescens NCTC 10211; 300 mg/l; 18 hours
Aeromonas caviae = experiment: Substrate hydrolysis on Columbia agar; design: key to the marks not given beside the values; details: Aeromonas caviae NCTC 10852; 300 mg/l; 18 hours
E. aerogenes = experiment: Substrate hydrolysis on Columbia agar; details: 300 mg/l, 18 hours
Salmonella hadar = experiment: Substrate hydrolysis on Columbia agar; details: Salmonella hadar SAX 57; 300 mg/l; 18 hours
Salmonella orthmarchen = experiment: Substrate hydrolysis on Columbia agar; details: Salmonella orthmarchen SAX 59; 300 mg/l; 18 hours
Providencia stuartii = experiment: Substrate hydrolysis on Columbia agar; details: 300 mg/l, 18 hours
[1] = tested on: Providencia alcalifaciens; experiment: Substrate hydrolysis on Columbia agar; details: 300 mg/l, 18 hours
Vibrio parahaemolyticus = experiment: Substrate hydrolysis on Columbia agar; details: 300 mg/l, 18 hours
Vibrio cincinnatiensis = experiment: Substrate hydrolysis on Columbia agar; details: Vibrio cincinnatiensis NCTC 12012; 300 mg/l; 18 hours
Vibrio harveyi = experiment: Substrate hydrolysis on Columbia agar; details: Vibrio harveyi NCTC 11346; 300 mg/l; 18 hours
Salmonella alachia = experiment: Substrate hydrolysis on Columbia agar; details: Salmonella alachia SAX 60; 300 mg/l; 18 hours
Text: (§1) This was achieved using a densitometer.
(§2) The same method was used as in Example 1.

Salmonella motevideo = experiment: Substrate hydrolysis on Columbia agar; details: Salmonella motevideo SAX 55; 300 mg/l; 18 hours
Text: as §1, §2

Shigella boydii = experiment: Substrate hydrolysis on Columbia agar; details: 300 mg/l, 18 hours
Text: as §1, §2

Shigella flexneri = experiment: Substrate hydrolysis on Columbia agar; details: 300 mg/l, 18 hours
Text: as §1, §2

Shigella sonnei = experiment: Substrate hydrolysis on Columbia agar; details: 300 mg/l, 18 hours
Text: as §1, §2

Vibrio mimicus = experiment: Substrate hydrolysis on Columbia agar; details: Vibrio mimicus NCTC 11435; 300 mg/l; 18 hours
Text: as §1, §2

Vibrio alcaligenes = experiment: Substrate hydrolysis on Columbia agar; details: Vibrio alcaligenes NCTC 12160; 300 mg/l; 18 hours
Streptococcus pneumoniae = experiment: Substrate hydrolysis on Columbia agar; details: Streptococcus pneumoniae NCTC 7465; 300 mg/l; 18 hours
Streptococcus agalactiae = experiment: Substrate hydrolysis on Columbia agar; details: Streptococcus agalactiae NCTC 8181; 300 mg/l; 18 hours
[2] = tested on: Haemolytic streptococcus B; experiment: Substrate hydrolysis on Columbia agar; details: 300 mg/l, 18 hours
[3] = tested on: Haemolytic streptococcus C; experiment: Substrate hydrolysis on Columbia agar; details: 300 mg/l, 18 hours
Listeria innocua = experiment: Substrate hydrolysis on Columbia agar; details: Listeria innocua PHLS wild; 300 mg/l; 18 hours
Listeria ivanovii = experiment: Substrate hydrolysis on Columbia agar; details: Listeria ivanovii PHLS wild; 300 mg/l; 18 hours
Staphylococcus aureus = experiment: Substrate hydrolysis on Columbia agar; details: 300 mg/l, 18 hours
[4] = tested on: Staphylococcus epidermidis; experiment: Substrate hydrolysis on Columbia agar; details: 300 mg/l, 18 hours
Enterococcus casseflavus = experiment: Substrate hydrolysis on Columbia agar; details: Enterococcus casseflavus NCTC 12361; 300 mg/l; 18 hours
Gram negative bacteria = experiment: Substrate hydrolysis on Columbia agar, summary of screen

O=c1cc(-c2ccc(OC3OC(CO)C(O)C3O)c(O)c2)oc2ccccc12 [DHF-riboside, 3′,4′-dihydroxyflavone-4′-β-D-ribofuranoside Sodium Salt]
Hydrolysis by Gram negative bacteria (E. coli; E. coli ECO 2): ++
Hydrolysis by Gram negative bacteria (E. coli; E. coli ECO 3): ++
Hydrolysis by Gram negative bacteria (E. coli; E. coli ECO 4): ++
Hydrolysis by Gram negative bacteria (E. coli; E. coli ECO 5): ++
Hydrolysis by Gram negative bacteria (E. coli; E. coli ECO 6): ++
Hydrolysis by Gram negative bacteria (E. coli; E. coli ECO 7): ++
Hydrolysis by Gram negative bacteria (E. coli; E. coli ECO 8): ++
Hydrolysis by Gram negative bacteria (E. coli; E. coli ECO 9): ++
Hydrolysis by Gram negative bacteria (E. coli; E. coli ECO 10): ++
Hydrolysis by Gram negative bacteria (E. coli; E. coli ECO 11): ++
Hydrolysis by Gram negative bacteria (E. coli; E. coli ECO 12): ++
Hydrolysis by Gram negative bacteria (E. coli; E. coli NCTC 10418): ++
Hydrolysis by Gram negative bacteria (Shigella dysenteriae; Shigella dysenteriae (type 2) NCTC 9952): ++
Hydrolysis by Gram negative bacteria (Shigella dysenteriae; Shigella dysenteriae (type 3) NCTC 9720): ++
Hydrolysis by Gram negative bacteria (Shigella dysenteriae; Shigella dysenteriae (type 4) NCTC 9759): ++
Hydrolysis by Gram negative bacteria (Hafnia alvei; Hafnia alvei HAL 2): ++
Hydrolysis by Gram negative bacteria (Hafnia alvei; Hafnia alvei NCTC 8105): ++
Hydrolysis by Gram negative bacteria (Serratia marcescens): ++
Hydrolysis by Gram negative bacteria (Aeromonas caviae): ++
Hydrolysis by Gram negative bacteria (E. aerogenes; E. aerogenes EAE 1): ++
Hydrolysis by Gram negative bacteria (E. aerogenes; E. aerogenes NCIMB 10102): ++
Hydrolysis by Gram negative bacteria (Salmonella hadar): ++
Hydrolysis by Gram negative bacteria (Salmonella orthmarchen): ++
Hydrolysis by Gram negative bacteria (Providencia stuartii; Providencia stuartii PST 1): +
Hydrolysis by Gram negative bacteria (Providencia stuartii; Providencia stuartii PST 2): +
Hydrolysis by Gram negative bacteria ([1]; Providencia alcalifaciens PAL 1): +
Hydrolysis by Gram negative bacteria ([1]; Providencia alcalifaciens PAL 2): −
Hydrolysis by Gram negative bacteria (Vibrio parahaemolyticus; Vibrio parahaemolyticus NCTC 10441): −
Hydrolysis by Gram negative bacteria (Vibrio parahaemolyticus; Vibrio parahaemolyticus NCTC 10884): −
Hydrolysis by Gram negative bacteria (Vibrio parahaemolyticus; Vibrio parahaemolyticus NCTC 10903): −
Hydrolysis by Gram negative bacteria (Vibrio parahaemolyticus; Vibrio parahaemolyticus NCTC 11344): −
Hydrolysis by Gram negative bacteria (Vibrio parahaemolyticus; Vibrio parahaemolyticus NCTC 12205): −
Hydrolysis by Gram negative bacteria (Vibrio cincinnatiensis): −
Hydrolysis by Gram negative bacteria (Vibrio harveyi): ++
Hydrolysis by Gram negative bacteria (Salmonella alachia): ++
Hydrolysis by Gram negative bacteria (Salmonella motevideo): ++
Hydrolysis by Gram negative bacteria (Shigella boydii; Shigella boydii NCTC 9327): ++
Hydrolysis by Gram negative bacteria (Shigella boydii; Shigella boydii NCTC 9732): ++
Hydrolysis by Gram negative bacteria (Shigella boydii; Shigella boydii NCTC 9850): ++
Hydrolysis by Gram negative bacteria (Shigella flexneri; Shigella flexneri NCTC 8192): ++
Hydrolysis by Gram negative bacteria (Shigella flexneri; Shigella flexneri NCTC 9723): ++
Hydrolysis by Gram negative bacteria (Shigella flexneri; Shigella flexneri NCTC 9780): ++
Hydrolysis by Gram negative bacteria (Shigella sonnei; Shigella sonnei NCTC 8219): ++
Hydrolysis by Gram negative bacteria (Shigella sonnei; Shigella sonnei NCTC 8574): ++
Hydrolysis by Gram negative bacteria (Shigella sonnei; Shigella sonnei NCTC 8586): ++
Hydrolysis by Gram negative bacteria (Shigella sonnei; Shigella sonnei NCTC 9774): ++
Hydrolysis by Gram negative bacteria (Shigella sonnei; Shigella sonnei NCTC 10352): ++
Hydrolysis by Gram negative bacteria (Vibrio mimicus): −
Hydrolysis by Gram negative bacteria (Vibrio alcaligenes): −
Hydrolysis by Gram positive organisms (Streptococcus pneumoniae): −
Hydrolysis by Gram positive organisms (Streptococcus agalactiae): −
Hydrolysis by Gram positive organisms ([2]; Haemolytic streptococcus B 1): −
Hydrolysis by Gram positive organisms ([2]; Haemolytic streptococcus B 2): −
Hydrolysis by Gram positive organisms ([2]; Haemolytic streptococcus B 3): −
Hydrolysis by Gram positive organisms ([3]; Haemolytic streptococcus C 1): −
Hydrolysis by Gram positive organisms ([3]; Haemolytic streptococcus C 67736): −
Hydrolysis by Gram positive organisms ([3]; Haemolytic streptococcus C 68350): −
Hydrolysis by Gram positive organisms (Listeria innocua): −
Hydrolysis by Gram positive organisms (Listeria ivanovii): +
Hydrolysis by Gram positive organisms (Staphylococcus aureus; Staphylococcus aureus 1): ++
Hydrolysis by Gram positive organisms (Staphylococcus aureus; Staphylococcus aureus 2): ++
Hydrolysis by Gram positive organisms (Staphylococcus aureus; Staphylococcus aureus 3): ++
Hydrolysis by Gram positive organisms (Staphylococcus aureus; Staphylococcus aureus 4): ++
Hydrolysis by Gram positive organisms (Staphylococcus aureus; Staphylococcus aureus 5): ++
Hydrolysis by Gram positive organisms ([4]; Staphylococcus epidermidis RB60): ++
Hydrolysis by Gram positive organisms ([4]; Staphylococcus epidermidis RB62): +
Hydrolysis by Gram positive organisms ([4]; Staphylococcus epidermidis RB63): +
Hydrolysis by Gram positive organisms ([4]; Staphylococcus epidermidis RB64): +
Hydrolysis by Gram positive organisms ([4]; Staphylococcus epidermidis RB65): +
Hydrolysis by Gram positive organisms (Enterococcus casseflavus): −
Gram negative bacteria tested that hydrolysed the substrate (Gram negative bacteria; of 120 Gram negative bacteria tested, 300 mg/l, 18 hours): 68.3%
colouration and diffusion of positive strains (Gram negative bacteria; positive Gram negative strains, agar): clearly visible black chelate which remained restricted to bacterial colonies without diffusion into the surrounding agar
